Patent publication US20140370521A1, “IDENTIFICATION OF TWO NOVEL BIOMARKERS FOR NIEMANN-PICK DISEASE TYPE C” (The USA , as Represented by the Secretary, Department of …, priority 2011, published 2014)
“Also recorded” adds a separate entry of the source.

Columns and labels:
galectin-3 (LGALS3) = assay: Serum galectin-3 (LGALS3) by ELISA in NPC1 patients treated or not with miglustat; format: in vivo, human
Description: (§1) Since 60% of the patients were being treated with off-label miglustat, the effect of treatment on LGALS3 or CTSD concentrations were investigated. […] Since individual responses could be masked by the large degree of variation between patients, LGALS3 and CTSD concentrations were also assessed in serum samples from six patients before and after they begin the treatment.
(§2) The study was approved by the Eunice Kennedy Shriver National Institute of Child Health and Human Development Institutional Review Board. Informed consent and, when appropriate, assent were obtained. Serum samples were obtained from 16 male and 14 female NPC1 patients participating in a Natural History trial (06-CH-0186) and 16 control individuals of similar age and gender distribution. Mean age of patients and controls were 7.9±5.8 years old and 9.1±4.2 years old respectively (P-value=0.3720). Phenotypic severity was determined using the severity scale developed by Yanjanin et al., Am. J. Med. Genet. B. Neuropsychiatr. Genet. 153B:132-40 (2010), and ranged from 0 to 40. […]
(§3) Serum levels of cathepsin D (CTSD; EMD Millipore, Billerica, Mass.), and galectin-3 (LGALS3; R&D systems, Minneapolis, Minn.) were measured in triplicate by ELISA, following manufacturers' instructions. […]

cathepsin D (CTSD) = assay: Serum cathepsin D (CTSD) by ELISA in NPC1 patients treated or not with miglustat; format: in vivo, human
Description: as §1, §2, §3

[1] = NPC patients; Patterson et al., Lancet Neurol. 6:765-72 (2007); cited from earlier work

With CCCCN1C[C@H](O)[C@@H](O)[C@H](O)[C@H]1CO [miglustat] the “LGALS3 concentrations in serum of NPC patients treated or not with miglustat” value (galectin-3 (LGALS3); NPC1 patients, off-label miglustat versus untreated group, serum, FIG. 7B) was “No statistical difference; also recorded: no significant differences”, the “Effect of miglustat treatment on LGALS3 level, before versus after start of treatment” value (galectin-3 (LGALS3); six patients, serum samples before and after beginning treatment, FIG. 7D) was “did not have any effect” and the “CTSD concentrations in serum of NPC patients treated or not with miglustat” value (cathepsin D (CTSD); NPC1 patients, off-label miglustat versus untreated group, serum, FIG. 7C) was “No statistical difference; also recorded: no significant differences”. The “Effect of miglustat treatment on CTSD level, before versus after start of treatment” value (cathepsin D (CTSD); six patients, serum samples before and after beginning treatment, FIG. 7E) was “did not have any effect” and the “Efficacy in slowing the neurological progression of the disease” value [1] was “has shown efficacy in slowing the neurological progression of the disease”.
